Measured values from patent publication US4138492A, “Aromatic amides of heterocyclic compounds and therapeutic compositions containing same” (priority 1974, dated 1979).
Where a name gives a salt, the structure may show the parent alone.

System: apomorphine-induced gnawing
Test: Antiapomorphine activity (apomorphine-induced gnawing) in the rat
Assay type: in vivo
Details: for ED50 / minimal effective dose: Rattus norvegicus; for ED50: po, per os, Table I, read-out: ED50 Values; for minimal effective dose: read-out: Antiapomorphine in rat; for activity as an anti-emetic: compared with metoclopramide, from Table I
From the text: A number of the compounds of the present invention were screened in parallel with metoclopramide for potential anti-emetic effects against apomorphine-induced gnawing in the rat and as local anaesthetics on the rat sciatic nerve (Table I).
*Antiapomorphine activity in rat scored as […]

Compound	ED50	minimal effective dose	activity as an anti-emetic	antiapomorphine activity in the rat (even at high doses)
COc1cc(NC(C)=O)c(Cl)cc1C(=O)NC1CCN(Cc2ccccc2)CC1 [Compound 1, N-[4'-(1'-benzyl)piperidyl]-2-methoxy-4-acetamido-5-chlorobenzamide]	~25 mg/kg	12.5 mg/kg		
COc1cc(NC(=O)CCl)c(Cl)cc1C(=O)NC1CCN(Cc2ccccc2)CC1 [Compound 3, N-[4'-(1'-benzyl)piperidyl]-2-methoxy-4-(α-chloroacetamido)-5-chlorobenzamide hydrochloride]	< 25 mg/kg	6.25 mg/kg	more active as an anti-emetic	
COc1cc(NC(=O)CN2CCCCC2)c(Cl)cc1C(=O)NC1CCN(Cc2ccccc2)CC1 [Compound 4, N-[4'-(1'-benzyl)piperidyl] -2-methoxy-4-α-(1"-piperidyl) acetamido-5-chlorobenzamide dihydrochloride]	~12 mg/kg	12.5 mg/kg		
COc1cc(NC(=O)CCl)ccc1C(=O)NC1CCN(Cc2ccccc2)CC1 [Compound 5, N-[4'-(1'-benzyl)piperidyl]-2-methoxy-4-α-chloroacetamidobenzamide hydrochloride]		25 mg/kg		
O=C(CCl)Nc1ccc(C(=O)NC2CCN(Cc3ccccc3)CC2)cc1 [Compound 6, N-[4'-(1'-benzyl)piperidyl]-4-(α-chloroacetamido) benzamide hydrochloride]		50 mg/kg		
COc1cc(NC(=O)C(F)(F)F)ccc1C(=O)NC1CCN(Cc2ccccc2)CC1 [Compound 7, N-[4'-(1'-benzyl)piperidyl]-2-methoxy-4-(α,α,α-trifluoroacetamido) benzamide hydrochloride]	< 25 mg/kg	25 mg/kg		
COc1cc(N)ccc1C(=O)NC1CCN(Cc2ccccc2)CC1 [Compound 8, N-[4'-(1'-benzyl)-piperidyl]-2-methoxy-4-aminobenzamide dihydrochloride]	< 25 mg/kg	6.25 mg/kg	more active as an anti-emetic	
COc1cc(NC(=O)C(F)(F)F)c(Cl)cc1C(=O)NC1CCN(Cc2ccccc2)CC1 [Compound 9, N-[4'-(1'-benzyl)piperidyl]-2-methoxy-4-(α,α, α-trifluoroacetamido)-5-chlorobenzamide hydrochloride]	< 25 mg/kg	3.12 mg/kg	more active as an anti-emetic	
COc1ccc(Cl)cc1C(=O)NC1CCN(Cc2ccccc2)CC1 [Compound 10, N-[4'-(1'-benzyl)piperidyl]-2-methoxy-5-chlorobenzamide hydrochloride]		50 mg/kg		
COc1cc(N)c(Cl)cc1C(=O)NC1CCN(Cc2ccc(Cl)cc2)CC1 [Compound 12, N-[4'-(1'-p-chlorobenzyl)-piperidyl]-2-methoxy-4-amino-5-chloro-benzamide hydrochloride]		3.12 mg/kg	more active as an anti-emetic	
COc1cccc(CN2CCC(NC(=O)c3cc(Cl)c(N)cc3OC)CC2)c1 [Compound 13, N-[4'-(1'-m-methoxy-benzyl)-piperidyl]-2-methoxy-4-amino-5-chloro-benzamidehydrochloride]		25 mg/kg		
COc1cc(N)c(Cl)cc1C(=O)NC1CCN(Cc2cccs2)CC1 [Compound 14]		12.5 mg/kg		
COc1cc(N)c(Cl)cc1C(=O)NC1CCN(Cc2ccc3c(c2)OCO3)CC1 [Compound 15]		6.25 mg/kg	more active as an anti-emetic	
COc1cc(N)c(Cl)cc1C(=O)NC1CCN(CC=Cc2ccccc2)CC1 [Compound 16, N-[4'-(1'-cinnamyl)-piperidyl]-2-methoxy-4-amino-5-chlorobenzamide hydrochloride]		25 mg/kg		
COc1cc(N)c(Cl)cc1C(=O)NC1CCN(Cc2cccc(Cl)c2)CC1 [Compound 17, N-[4'-(1'-m-chlorobenzyl)-piperidyl]-2-methoxy-4-amino-5-chloro-benzamide hydrochloride]		12.5 mg/kg		
COc1ccc(CN2CCC(NC(=O)c3cc(Cl)c(N)cc3OC)CC2)cc1 [Compound 18, N-[4'-(1'-p-methoxy-benzyl)-piperidyl]-2-methoxy-4-amino-5-chloro-benzamidehydrochloride]		3.12 mg/kg	more active as an anti-emetic	
COc1cc(N)c(Cl)cc1C(=O)NC1CCN(C(c2ccccc2)c2ccccc2)CC1 [Compound 19, N-[4'-(1'-diphenyl-methyl)-piperidyl]-2-methoxy-4-amino-5-chloro-benzamide hydrochloride]		50 mg/kg		
COc1ccccc1CN1CCC(NC(=O)c2cc(Cl)c(N)cc2OC)CC1 [Compound 20, N-[4'-(1'-o-methoxy-benzyl)-piperidyl]-2-methoxy-4-amino-5-chloro-benzamide]		25 mg/kg		
COc1cc(N)c(Cl)cc1C(=O)NC1CCN(Cc2ccccc2Cl)CC1 [Compound 21, N-[4'-(1'-o-chlorobenzyl)-piperidyl]-2-methoxy-4-amino-5-chloro-benzamide hydrochloride]		25 mg/kg		
COc1ccc(S(N)(=O)=O)cc1C(=O)NC1CCN(Cc2ccccc2)CC1 [N-[4'-(1'-benzyl)piperidyl]-2-methoxy-5-sulphamoylbenzamide hydrochloride]				do not exhibit antiapomorphine activity in the rat even at high doses
